# Data reported in patent US20240358721A1, “GASDERMIN-D INHIBITORS AND USES THEREOF FOR TREATING PULMONARY VASO-OCCLUSION” (UNIVERSITY OF PITTSBURGH-OF THE COMMONWEALTH SYSTEM OF …, priority 2021, published 2024).
# How the values were obtained:
# SCD-Selp−/− mice [1] = assay: qFILM detection of circulating NETs arriving in the lung microcirculation, SCD-Selp−/− mice; format: in vivo, mouse; settings: IV 10 μmole/kg oxy-Hb with 10 mg/kg inhibitor vs oxy-Hb alone, significant
# Method: (FIG. 5A) Experimental scheme: SCD or SCD-Selp^−/− mice were IV administered 10 μmole/kg oxy-Hb (10 oxy-Hb) without or with 10 mg/kg GSDMD inhibitors LDC75591 or Disulfiram. In FIGS. 5C-5D, venous blood was processed to generate PPP and cNETs detected in PPP using Imaging Flow Cytometry. Imaging Flow Cytometry data was quantified to estimate concentration of cNETs (#cNETs/μl of plasma). In FIGS. 5B, and 5E-5F, quantitative fluorescence intravital lung microscopy (qFILM) was used to detect arrival of circulating NETs (cNETs) within the lung microcirculation. Number of cNETs entering per FOV over a 1-minute duration (#cNETs/FOV/min) were quantified. In FIGS. 5G-5J, qFILM was used to assess the absence or presence of pulmonary vaso-occlusion using the experimental strategy described in FIG. 1A. Pulmonary vaso-occlusions (PVOs) were compared between treatment groups using following two parameters: Number of PVOs per Field of View (#PVOs/FOV) and number of large PVOs (with area>1000 μm^2) per FOV. […]
# Quantitative fluorescence intravital lung microscopy (qFILM) has been used widely for in vivo assessment of pulmonary vasoocclusion in mice with SCD [Bennewitz M F et al., (2017); Vats R, Brzoska T, Bennewitz M F, et al. (2020); Vats R, Tutuncuoglu E, Pradhan-Sundd T, Tejero J, Shaw G D, Sundd P. (2020); Bennewitz M F, Tutuncuoglu E, Gudapati S, et al. (2020)] […]
# SCD-Selp−/− mice [2] = assay: qFILM assessment of P-selectin-independent pulmonary vaso-occlusion in SCD-Selp−/− mice IV administered oxy-Hb; format: in vivo, mouse; settings: IV 10 μmole/kg oxy-Hb with 10 mg/kg inhibitor vs oxy-Hb alone
# Source text: Quantitative fluorescence intravital lung microscopy (qFILM) was used to assess the absence or presence of platelet-neutrophil aggregate mediated pulmonary vaso-occlusion. Pulmonary microcirculation (pseudo-colored purple), neutrophils (red) and platelets (pseudo-colored green) were labeled in vivo by IV administration of FITC dextran, AF546-anti-Ly6G Ab and V450-anti-CD49b Ab, respectively. […] White arrows denote the direction of blood flow within the pulmonary arterioles. Alveoli are marked with asterisks. Scale bars 20 μm. The diameter of pulmonary arteriole in B-E is ˜22 μm, 32 μm, 31.5 μm, and 31 μm, respectively. […] Refer Online Data Supplement for details. […] The data for mice with SCD IV administered 10 oxy-Hb (n=5 mice; 75 FOVs) are included as black bars in FIGS. 1N and 1O for relative comparison. qFILM FOV size ˜65 536 μm^2. Data represent mean ±SE and are compared using Student t test. *P<0.05 (FIG. 1P) Schematic showing the main findings of the study. The sterile inflammatory milieu (DAMPs, IFN-I signaling, and ROS) in SCD promotes caspase-4 (humans) or caspase-11 (mouse)-dependent cleavage of neutrophil GSDMD into the active form GSDMD-NT, leading to the shedding of NETs in the liver microcirculation. Once shed, these NETs are carried by the blood as cNETs to the lung, where they promote neutrophil-platelet aggregation in the pulmonary arterioles, leading to PVO and lung injury (acute chest syndrome).
# SCD-Selp^−/− mice were IV administered 10 μmole/kg oxy-Hb (10 oxy-Hb) without or with 10 mg/kg GSDMD inhibitor (Disulfiram). Quantitative fluorescence intravital lung microscopy (qFILM) was used to assess the absence or presence of pulmonary vasoocclusion using the same experimental scheme described in FIG. 1A. Pulmonary vasoocclusions (PVOs) were compared between treatment groups using following two parameters: Number of PVOs per Field of View (#PVOs/FOV) and number of large PVOs (with area>1000 μm^2) per FOV. […] The data for SCD mice IV administered 10 oxy-Hb (n=5 mice; 75 FOVs) is included as black bars in FIGS. 4A and 4B for relative comparison. FOV size˜65,536 μm^2. […]
# (FIG. 5A) Experimental scheme: SCD or SCD-Selp^−/− mice were IV administered 10 μmole/kg oxy-Hb (10 oxy-Hb) without or with 10 mg/kg GSDMD inhibitors LDC75591 or Disulfiram. In FIGS. 5C-5D, venous blood was processed to generate PPP and cNETs detected in PPP using Imaging Flow Cytometry. Imaging Flow Cytometry data was quantified to estimate concentration of cNETs (#cNETs/μl of plasma). In FIGS. 5B, and 5E-5F, quantitative fluorescence intravital lung microscopy (qFILM) was used to detect arrival of circulating NETs (cNETs) within the lung microcirculation. Number of cNETs entering per FOV over a 1-minute duration (#cNETs/FOV/min) were quantified. […]
smiles,measurement,setting,value
"CCN(CC)C(=S)SSC(=S)N(CC)CC [Disulfiram, disulfiram]","#cNETs/FOV/min in the lung, less than 10 oxy-Hb alone",SCD-Selp−/− mice [1],4 folds
same,number of large PVOs (with area>1000 μm^2) per FOV,SCD-Selp−/− mice [2],absent
same,Number of PVOs per Field of View (#PVOs/FOV),SCD-Selp−/− mice [2]; 10 mg/kg,significantly reduced
